Results published in PubChem BioAssay (NCI).
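In this assay, cells in 96-well plates receive the compound at five concentrations for 48 hours. Endpoints are linearly interpolated between the surrounding concentrations. TGI: total growth inhibition.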

Legend:
Assay in all cases: NCI anticancer screen, dose series, 48 h
[1] = system: 786-0 renal
[2] = system: A549 NSCLC
[3] = system: ACHN renal
[4] = system: CCRF-CEM leukemia
[5] = system: COLO 205 colon
[6] = system: DLD-1 colon
[7] = system: DMS 273 small cell lung
[8] = system: EKVX NSCLC
[9] = system: HCC-2998 colon
[10] = system: HCT-116 colon
[11] = system: HCT-15 colon
[12] = system: HL-60(TB) leukemia
[13] = system: HOP-18 NSCLC
[14] = system: HOP-62 NSCLC
[15] = system: HOP-92 NSCLC
[16] = system: HT29 colon
[17] = system: IGROV1 ovarian
[18] = system: K-562 leukemia
[19] = system: KM12 colon
[20] = system: KM20L2 colon
[21] = system: LOX IMVI melanoma
[22] = system: LXFL 529 NSCLC
[23] = system: M14 melanoma
[24] = system: M19-MEL melanoma
[25] = system: MALME-3M melanoma
[26] = system: MOLT-4 leukemia
[27] = system: NCI-H226 lung
[28] = system: NCI-H23 lung
[29] = system: NCI-H460 lung
[30] = system: NCI-H522 lung
[31] = system: OVCAR-3 ovarian
[32] = system: OVCAR-4 ovarian
[33] = system: OVCAR-5 ovarian
[34] = system: OVCAR-8 ovarian
[35] = system: RPMI-8226 leukemia
[36] = system: RXF 393 renal
[37] = system: RXF-631 renal
[38] = system: SF-295 CNS
[39] = system: SF-539 CNS
[40] = system: SK-MEL-2 melanoma
[41] = system: SK-MEL-28 melanoma
[42] = system: SK-MEL-5 melanoma
[43] = system: SK-OV-3 ovarian
[44] = system: SN12C renal
[45] = system: SNB-19 CNS
[46] = system: SNB-75 CNS
[47] = system: SR leukemia
[48] = system: SW-620 colon
[49] = system: TK-10 renal
[50] = system: U251 CNS
[51] = system: UACC-257 melanoma
[52] = system: UACC-62 melanoma
[53] = system: UO-31 renal
[54] = system: XF 498 CNS
[55] = system: A498 renal
[56] = system: CAKI-1 renal
[57] = system: DMS 114 small cell lung
[58] = system: SF-268 CNS
[59] = system: SNB-78 CNS

Measured: TGI

COC(=O)c1sc(=O)n(-c2ccccc2)c1SCc1ccccc1
not listed: [55] | [56] | [57] | [58] | [59]
> 100 µM: all other assays above

OCC(CO)C1c2cccc3ccc4cccc1c4c23
not listed: [9] | [11] | [22] | [30]
> 100 µM: all other assays above
